Data published in PubChem BioAssay (NCI).
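96-well plates; 48 h exposure; 5 concentrations. Endpoints by linear interpolation between flanking doses. Not reached: highest tested concentration assigned. GI50: concentration for 50% inhibition of growth. At the TGI there is no net growth.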

Columns and labels:
Test in all cases: growth of human tumour cells (NCI), 48 h
BT-549 breast = system: BT-549 breast
786-0 renal = system: 786-0 renal
CCRF-CEM leukemia = system: CCRF-CEM leukemia
OVCAR-4 ovarian = system: OVCAR-4 ovarian
UO-31 renal = system: UO-31 renal
A549 NSCLC = system: A549 NSCLC
SK-MEL-5 melanoma = system: SK-MEL-5 melanoma
MDA-MB-435 = system: MDA-MB-435
SNB-19 CNS = system: SNB-19 CNS
HL-60(TB) leukemia = system: HL-60(TB) leukemia

Row | Compound | GI50 (BT-549 breast) [nM] | TGI (BT-549 breast) [µM] | GI50 (786-0 renal) [nM] | GI50 (CCRF-CEM leukemia) [nM] | TGI (CCRF-CEM leukemia) [µM] | GI50 (OVCAR-4 ovarian) [nM] | TGI (OVCAR-4 ovarian) [µM] | GI50 (UO-31 renal) [µM] | TGI (UO-31 renal) [µM] | GI50 (A549 NSCLC) [nM] | TGI (A549 NSCLC) [µM] | GI50 (SK-MEL-5 melanoma) [nM] | TGI (SK-MEL-5 melanoma) [µM] | GI50 (MDA-MB-435) [nM] | TGI (MDA-MB-435) [µM] | GI50 (SNB-19 CNS) [µM] | TGI (SNB-19 CNS) [µM] | GI50 (HL-60(TB) leukemia) [nM] | TGI (786-0 renal) [µM] | TGI (HL-60(TB) leukemia) [µM]
1 | COc1cc2c(c(OC)c1OC)-c1ccc(N=NC(N)=S)c(=O)cc1[C@@H](NC(C)=O)CC2 | 624 | > 100 | 1690 | 535 | > 100 | 1430 | > 100 | 6.92 | > 100 | 3630 | > 100 | 324 | 1.24 | 216 | 0.577 | 0.578 | > 100 | 378 |  | 
2 | CC1=Nc2c([nH]c(=S)[nH]c2=O)NC(c2c(Cl)cccc2Cl)C1 (stereo not given) |  | 2.64 |  |  | 2.18 |  | 9.09 |  | 10.2 |  | 15 |  | 9.99 |  | 2.88 |  | 6.37 |  | 1.76 | 2.54
3 | Cc1[nH]c2cc(F)ccc2c1-c1nc2c3cccnc3c3ncccc3c2[nH]1 | 215 | 1.57 | 243 | 67.2 | 0.644 | 43.8 | 1.23 | 0.266 | 0.929 | 381 | 2.35 | 169 | 0.726 | 342 | 1.48 | 0.257 | 3.87 | 205 | 0.973 | 0.564
4 | COc1cc(Cl)cc(-c2nn(-c3cccc(NC(=O)Nc4ccc(Cl)c(Cl)c4)c3)cc2-c2ccncc2)c1 | 2620 | 8.28 | 2310 | 2000 | 6 | 2850 | 53.8 | 1.89 | 18.2 | 1480 | 15.3 | 1620 | 3.17 | 2080 | 6 | 3.51 | > 100 | 2190 | 7.84 | 5.68
5 | CC(=O)O[C@H]1CC[C@@]2(C)C(=C/C(=N/OCCN3CCCC3)[C@H]3[C@@H]4CC[C@H](OC(C)=O)[C@@]4(C)CC[C@@H]32)C1 | 53400 | > 100 | 30800 | 42900 | > 100 | > 100000 | > 100 | 20.8 | 53.3 | 63300 | > 100 | 17300 | 31.9 | 53000 | > 100 | 69.1 | > 100 | 23300 | > 100 | 57.7
6 | CC1(C)Cc2c(Br)c(Br)c(Br)c(OCC(O)CN3CCN(c4ccccn4)CC3)c2O1 (stereo not given) | 11600 | 26 | 12500 | 3810 | > 100 | 12100 | 26.7 | 11 | 24 |  |  | 10800 | 23.1 | 14300 | 33.6 | 20.8 | 49.6 | 2800 | 26.1 | 11.1
7 | COc1cc2oc3c(c(=O)c2c(O)c1/C=C/C(C)C)C(C=C(C)C)Oc1cc(O)ccc1-3 (stereo not given) |  | 23.4 |  |  | 30.4 |  | 31.5 |  | 25.2 |  | 28.8 |  | 39.9 |  | 30.8 |  | 30.6 |  | 30.6 | 56.1
8 | COC1CC(N)C(O)C(C)O1 (stereo not given) |  | > 100 |  |  | > 100 |  | > 100 |  | > 100 |  |  |  | > 100 |  | > 100 |  | > 100 |  | > 100 | > 100
